Measured values: patent US4550186A, “Binuclear copper (II) carboxylates formed from amine-carboxyboranes” (Duke University, priority 1983, dated 1985)
Like-named read-outs stand apart in the source and are kept apart here.

Assays:
[1] = tested on: Ehrlich ascites carcinoma; test: Ehrlich ascites carcinoma growth in CF1 male mice; type: in vivo, mouse; details: for No. of Animals Survived on Day 10: 6 animals; for Ascrit Packed Cell Vol. / Vol(ml) Ascites Fluid: Day 10; for Percent Inhibition: Ehrlich ascites carcinoma growth
Method: (§1) CF1 male mice (~30 g) were implanted with 2×10^6 Ehrlich ascites tumor cells, intraperitoneally on Day 0. Compound I was suspended by homogenation in 0.05% polysorbate.80-water and administered intraperitoneally at 10 and 20 mg/kg for 9 days to determine its effectiveness for inhibition of tumor growth. Mice were sacrificed on Day 10, and the ascites fluid was collected from the peritoneal cavity. The volume and ascrit (packed cell volume) were determined for each animal and the percent inhibition of tumor growth was calculated. For the metabolic studies, mice were treated on Days 8 and 9 with 10 mg/kg of Compound I, intraperitoneally. The animal was sacrificed on Day 10 and the ascites fluid harvested. The in vitro metabolic studies were performed at 0.25, 0.50 and 1 mmol final concentration of Compound I.

[2] = tested on: purine de novo synthesis of Ehrlich ascites cells; test: In vivo formate incorporation into purines; set-up: species or system mouse
Method: as §1, with “The animal was sacrificed on Day 10 and the ascites fluid harvested. The in vitro metabolic studies were performed at 0.25, 0.50 and 1 mmol final concentration of Compound I.” left out
(§2) Carbamyl phosphate synthetase activity was determined using the reaction medium of Kalman et al [Am. […] Citrulline formed from ornithine was measured at 490 nm by the method of Archibald [J. Biol. Chem., 156, 121 (1944)]. […] The ^14 CO2 generated in 15 min was trapped in 1M KOH and counted. Thymidylate synthetase activity was determined using a post-mitochondrial supernatant (9000 g×10 min) and 5 μCi of 5-^3 H-deoxyuridine monophosphate (14 Ci/mmol) according to the method of Kampf et al [ J. Med. Chem., 19, 903 (1976)]. ^14 C-Formate incorporation into purines was determined by the method of Spassova et al [Biochem. Pharmacol., 25, 923 (1976)] using 0.5 μCi of ^14 C-formic acid (52.0 mCi/mmol). […] The Rf value for xanthine monophosphate was scraped and counted. […]

[3] = molecular target: T1, orotidine monophosphate decarboxylase (Mus musculus, UniProt P13439); test: In vivo orotidine monophosphate decarboxylase activity
T1 construct: OMP decarboxylase domain of UMP synthase
T1 sequence (P13439 whole entry, the tested form may be a part): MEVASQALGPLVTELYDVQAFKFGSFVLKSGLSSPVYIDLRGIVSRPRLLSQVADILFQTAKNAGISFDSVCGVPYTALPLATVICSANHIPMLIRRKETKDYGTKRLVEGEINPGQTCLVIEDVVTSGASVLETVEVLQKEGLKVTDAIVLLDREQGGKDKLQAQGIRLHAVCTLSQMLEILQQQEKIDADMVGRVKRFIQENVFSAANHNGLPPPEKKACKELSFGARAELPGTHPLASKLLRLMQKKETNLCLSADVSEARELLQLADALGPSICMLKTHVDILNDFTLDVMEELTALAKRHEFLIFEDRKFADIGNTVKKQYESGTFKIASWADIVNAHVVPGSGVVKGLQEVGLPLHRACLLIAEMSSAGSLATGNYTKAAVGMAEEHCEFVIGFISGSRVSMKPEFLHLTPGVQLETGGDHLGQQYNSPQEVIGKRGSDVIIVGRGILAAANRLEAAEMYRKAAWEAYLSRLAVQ
Method: as §1, with “The animal was sacrificed on Day 10 and the ascites fluid harvested. The in vitro metabolic studies were performed at 0.25, 0.50 and 1 mmol final concentration of Compound I.” left out
as §2

[4] = tested on: deoxyribonucleic acid synthesis of Ehrlich ascites cells; test: In vitro whole cell incorporation: deoxyribonucleic acid synthesis; type: cell-based, mouse; details: preliminary, 60 min, read-out: ID50, inhibition of deoxyribonucleic acid synthesis
Method: as §1
In vitro incorporation of ^3 H-thymidine, ^3 H-uridine, or ^3 H-leucine was determined using 10^6 Ehrlich ascites cells, 1 μCi labeled precursor, minimum essential medium and varying final concentrations of drug from 0.25-1.0 mM. The tubes were incubated at 37° C. for 60 min and inactivated by trichloroacetic acid. The acid insoluble labeled deoxyribonucleic acid was collected on GF/F glass filter discs and ribonucleic acid and protein were precipitated on nitrocellulose filters by vacuum suction. Results are expressed as dpm of incorporated precursor per hour per 10^6 cells.

[5] = molecular target: T1, orotidine monophosphate decarboxylase; test: In vitro orotidine monophosphate decarboxylase activity; type: biochemical; details: 0.25 to 1.0 mM
Method: as §1, with “The animal was sacrificed on Day 10 and the ascites fluid harvested. The in vitro metabolic studies were performed at 0.25, 0.50 and 1 mmol final concentration of Compound I.” left out
as §2

[6] = tested on: inosinic acid dehydrogenase; test: In vitro inosinic acid dehydrogenase activity; type: biochemical, mouse; details: 0.25 to 1.0 mM
Method: as §1, with “The animal was sacrificed on Day 10 and the ascites fluid harvested. The in vitro metabolic studies were performed at 0.25, 0.50 and 1 mmol final concentration of Compound I.” left out
as §2

[7] = 10 mg/kg/day I.P. on Days 8 and 9

{Cu[(CH3)3 N.BH2 CO2 ]2.(CH3)3 N.BH2 COOH} [Compound I]
No. of Animals Survived on Day 10 ([1]; 10 mg/kg/day i.p.): 5 | Ascrit Packed Cell Vol. ([1]; 10 mg/kg/day i.p.): 18.5 | Vol(ml) Ascites Fluid ([1]; 10 mg/kg/day i.p.): 0.04 mL | Percent Inhibition ([1]; 10 mg/kg/day i.p.): 99.7% | No. of Animals Survived on Day 10 ([1]; 20 mg/kg/day i.p.): 6 | Ascrit Packed Cell Vol. ([1]; 20 mg/kg/day i.p.): 34.0 | Vol(ml) Ascites Fluid ([1]; 20 mg/kg/day i.p.): 0.32 mL | Percent Inhibition ([1]; 20 mg/kg/day i.p.): 96.2% | 14C-Formate incorporation into purines [2, 7]: 59 ± 6 % Control | Purine de novo synthesis inhibited ([2]; 10 day Ehrlich ascites cells): 41% | Orotidine monophosphate decarboxylase activity [3]: not affected | Orotidine monophosphate decarboxylase activity [3, 7]: 106 ± 9 % Control | IC50 [4]: 940 µM | orotidine monophosphate decarboxylase inhibition [5]: not inhibited | inosinic acid dehydrogenase inhibition [6]: not inhibited
